# Test system: COX-2 expression
# Assay: COX-2 immunoblot (Western blot) in RAW 264.7 cells
# Assay type: cell-based, murine
# Procedure: Cell culture—RAW 264.7 cells (a murine macrophage-like cell line, ATCC TIB-71), 293T cells (a human embryonic kidney cell line, provided by Sam Lee, Beth Israel Hospital. Boston, Mass.), and HT-29 cells (a human colon adenocarcinoma cell line, ATCC HTB-38) were cultured in Dulbecco's modified Eagle's medium (DMEM) containing 10% (v/v) heat-inactivated fetal bovine serum (FBS, Intergen) and 100 units/ml Penicillin and […] Streptomycin (GIBCO-BRL) at 37° C. in a 5% CO2/air environment. Cells (2×10^6) were plated in 60-mm dishes and cultured for an additional 18 hours to allow the number of cells to approximately double. Cells were maintained in serum-poor (0.25% FBS) medium for another 18 hours prior to the treatment with indicated reagents.
# Preparation of fatty acids-albumin complexes—All fatty acids were solubilized in ethanol, and then combined with fatty acid-free and low-endotoxin BSA at a molar ratio of 10:1 (fatty acid: albumin) in serum-poor medium (0.25% FBS). Fatty acids-albumin complex solution was freshly prepared prior to each experiment.
# Sodium dodecyl sulfate-polyacrylamide gel electrophoresis (SDS-PAGE) and immunoblotting—These procedures were performed as previously described in D. Hwang et al., “Expression of mitogen-inducible cyclooxygenase induced by lipopolysaccharide: mediation through both mitogen-activated protein kinase and NF-kappaB signaling pathways in macrophages,” Biochem. Pharmacol., vol. 54, pp. 87-96 (1997). Briefly, solubilized proteins were subjected to 8% SDS-PAGE for COX-2, iNOS, IL- 1α and GAPDH immunoblot analyses. Following electrophoresis, the gel was transferred to a PVDF membrane and the membrane was blocked to prevent non-specific binding of antibodies in TBS-T [20 mM Tris HCl, 137 mM NaCl, 0.05% (v/v) Tween 20, pH 7.6] containing 5% non-fat dried milk (Carnation). Immunoblotting was performed using respective polyclonal antibodies followed by incubation with anti-rabbit IgG coupled to horseradish peroxidase. The membrane was exposed on an X-ray film (Kodak) using ECL western blot detection reagents (Amersham).
# After 11 h, cell lysates were analyzed by COX-2, iNOS, IL-1α, or GAPDH immunoblot using a Western blot analysis.
# The cell lysates were analyzed by COX-2 or GAPDH immunoblot.
# RAW 264.7 cells were pretested with various concentrations (5, 10, 20, and 50 μM) of docosahexaenoic acid (C22:6n-3) for 3 hours, and then stimulated with LPS (100 ng/ml) for 8 hours and analyzed by COX-2, iNOS, IL-1 a or GAPDH immunoblot.
# Cells stably transfected with NFκB(5×) or COX-2 promoter reporter genes were pretreated with various concentrations of each fatty acid for 3 hrs. Cells were then treated with LPS (200 ng/ml). After 8 hrs, cell lysates were prepared and luciferase activities were determined. Data are expressed as a percentage of LPS treatment alone. The results for NFκB and COX-2 expression are given in FIGS. 8A and 8B, respectively. The values are mean±SEM (n=3) of RLA, relative luciferase activity. In FIG. 8C, the cells were pretreated with DHA (20 μM) or C12:0 (75 μM) for 3 hrs and further stimulated with LPS (200 ng/ml for DHA; 1 ng/ml for C12:0). After 8 hr, cell lysates were analyzed by COX-2 and actin immunoblotting.
smiles,measurement,setting,value
CCCCCCCCCCCC(=O)O [lauric acid],effect on LPS-induced COX-2 expression (immunoblot),"DHA 20 μM or C12:0 75 μM 3 hrs, LPS 200 ng/ml for DHA, 1 ng/ml for C12:0, 8 hr",potentiated
same,COX-2 expression induced by fatty acid (immunoblot),"RAW 264.7, lauric acid 1, 10, 50, 100 μM with BSA, 11 h",induced
